From the NIST ThermoML archive (doi:10.1016/j.jct.2016.10.024)

Assay: mn = molality of the nth substance listed, in mol/kg
Conditions: 75 kPa, Liquid, Buoyancy - hydrostatic balance with magnetic suspension - one sinker

CC(N)=O [ethanamide] + O
Conditions	mass density [kg/m3]
275.66 K, m1 = 0.102	1000.47
275.66 K, m1 = 0.2015	1000.96
275.66 K, m1 = 0.2995	1001.42
275.66 K, m1 = 0.4032	1001.9
275.66 K, m1 = 0.4848	1002.29
275.66 K, m1 = 0.5945	1002.81
275.66 K, m1 = 0.6875	1003.24
275.66 K, m1 = 0.7747	1003.64
276.14 K, m1 = 0.09682	1000.43
276.14 K, m1 = 0.2023	1000.93
276.14 K, m1 = 0.3049	1001.42
276.14 K, m1 = 0.4077	1001.91
276.14 K, m1 = 0.5003	1002.35
276.14 K, m1 = 0.6016	1002.82
276.14 K, m1 = 0.7037	1003.3
276.14 K, m1 = 0.8092	1003.79
276.61 K, m1 = 0.1016	1000.37
276.61 K, m1 = 0.1972	1000.9
276.61 K, m1 = 0.299	1001.39
276.61 K, m1 = 0.4078	1001.9
276.61 K, m1 = 0.4957	1002.32
276.61 K, m1 = 0.6048	1002.83
276.61 K, m1 = 0.6858	1003.21
276.61 K, m1 = 0.8092	1003.78
277.15 K, m1 = 0.09682	1000.43
277.15 K, m1 = 0.2023	1000.93
277.15 K, m1 = 0.3049	1001.41
277.15 K, m1 = 0.4077	1001.88
277.15 K, m1 = 0.5003	1002.32
277.15 K, m1 = 0.6016	1002.8
277.15 K, m1 = 0.7037	1003.28
277.15 K, m1 = 0.8092	1003.77
277.61 K, m1 = 0.1016	1000.45
277.61 K, m1 = 0.1972	1000.91
277.61 K, m1 = 0.299	1001.38
277.61 K, m1 = 0.4078	1001.89
277.61 K, m1 = 0.4957	1002.29
277.61 K, m1 = 0.6048	1002.79
277.61 K, m1 = 0.6858	1003.16
277.61 K, m1 = 0.8092	1003.73
278.12 K, m1 = 0.1016	1000.43
278.12 K, m1 = 0.1972	1000.88
278.12 K, m1 = 0.299	1001.35
278.12 K, m1 = 0.4078	1001.85
278.12 K, m1 = 0.4957	1002.27
278.12 K, m1 = 0.6048	1002.77
278.12 K, m1 = 0.6858	1003.15
278.12 K, m1 = 0.8092	1003.73
278.68 K, m1 = 0.102	1000.43
278.68 K, m1 = 0.2015	1000.9
278.68 K, m1 = 0.2995	1001.36
278.68 K, m1 = 0.4032	1001.83
278.68 K, m1 = 0.4848	1002.21
278.68 K, m1 = 0.5945	1002.7
278.68 K, m1 = 0.6875	1003.12
278.68 K, m1 = 0.7747	1003.51

CCC(N)=O [propanamide] + O
Conditions	mass density [kg/m3]
275.66 K, m1 = 0.09705	1000.26
275.66 K, m1 = 0.18	1000.53
275.66 K, m1 = 0.2822	1000.89
275.66 K, m1 = 0.3869	1001.24
275.66 K, m1 = 0.4939	1001.62
275.66 K, m1 = 0.5946	1002
275.66 K, m1 = 0.702	1002.4
275.66 K, m1 = 0.8002	1002.77
276.14 K, m1 = 0.1006	1000.29
276.14 K, m1 = 0.1957	1000.6
276.14 K, m1 = 0.2937	1000.93
276.14 K, m1 = 0.3933	1001.26
276.14 K, m1 = 0.4953	1001.62
276.14 K, m1 = 0.59	1001.96
276.14 K, m1 = 0.7073	1002.39
276.14 K, m1 = 0.799	1002.72
276.61 K, m1 = 0.09735	1000.27
276.61 K, m1 = 0.2018	1000.61
276.61 K, m1 = 0.3001	1000.94
276.61 K, m1 = 0.3875	1001.23
276.61 K, m1 = 0.4999	1001.62
276.61 K, m1 = 0.5929	1001.94
276.61 K, m1 = 0.702	1002.32
276.61 K, m1 = 0.7924	1002.63
277.15 K, m1 = 0.1006	1000.29
277.15 K, m1 = 0.1957	1000.61
277.15 K, m1 = 0.2937	1000.93
277.15 K, m1 = 0.3933	1001.27
277.15 K, m1 = 0.4953	1001.61
277.15 K, m1 = 0.59	1001.93
277.15 K, m1 = 0.7073	1002.35
277.15 K, m1 = 0.799	1002.67
277.61 K, m1 = 0.09735	1000.28
277.61 K, m1 = 0.2018	1000.61
277.61 K, m1 = 0.3001	1000.92
277.61 K, m1 = 0.3875	1001.21
277.61 K, m1 = 0.4999	1001.59
277.61 K, m1 = 0.5929	1001.9
277.61 K, m1 = 0.694	1002.23
277.61 K, m1 = 0.8027	1002.59
278.12 K, m1 = 0.09735	1000.28
278.12 K, m1 = 0.2018	1000.62
278.12 K, m1 = 0.297	1000.92
278.12 K, m1 = 0.4495	1001.43
278.12 K, m1 = 0.4911	1001.58
278.12 K, m1 = 0.5697	1001.85
278.12 K, m1 = 0.7087	1002.34
278.12 K, m1 = 0.8713	1002.91
278.68 K, m1 = 0.09705	1000.26
278.68 K, m1 = 0.18	1000.51
278.68 K, m1 = 0.2822	1000.84
278.68 K, m1 = 0.3869	1001.18
278.68 K, m1 = 0.4939	1001.53
278.68 K, m1 = 0.5946	1001.87
278.68 K, m1 = 0.702	1002.24
278.68 K, m1 = 0.8002	1002.58

CCCC(N)=O [butanamide] + O
Conditions	mass density [kg/m3]
275.66 K, m1 = 0.1003	1000.06
275.66 K, m1 = 0.1971	1000.2
275.66 K, m1 = 0.301	1000.37
275.66 K, m1 = 0.4013	1000.56
275.66 K, m1 = 0.4955	1000.75
275.66 K, m1 = 0.6013	1000.97
275.66 K, m1 = 0.695	1001.2
275.66 K, m1 = 0.8012	1001.46
276.14 K, m1 = 0.1021	1000.06
276.14 K, m1 = 0.1961	1000.2
276.14 K, m1 = 0.2967	1000.37
276.14 K, m1 = 0.4955	1000.75
276.14 K, m1 = 0.6013	1000.96
276.14 K, m1 = 0.6982	1001.18
276.14 K, m1 = 0.8012	1001.42
276.14 K, m1 = 0.9855	1001.87
276.61 K, m1 = 0.1009	1000.05
276.61 K, m1 = 0.1973	1000.18
276.61 K, m1 = 0.2967	1000.33
276.61 K, m1 = 0.4013	1000.51
276.61 K, m1 = 0.5977	1000.89
276.61 K, m1 = 0.7003	1001.11
276.61 K, m1 = 0.8012	1001.35
276.61 K, m1 = 0.9976	1001.83
277.15 K, m1 = 0.1021	1000.09
277.15 K, m1 = 0.1961	1000.21
277.15 K, m1 = 0.2967	1000.35
277.15 K, m1 = 0.4955	1000.69
277.15 K, m1 = 0.6013	1000.9
277.15 K, m1 = 0.6982	1001.13
277.15 K, m1 = 0.8012	1001.4
277.15 K, m1 = 0.9855	1001.94
277.61 K, m1 = 0.1009	1000.08
277.61 K, m1 = 0.1973	1000.21
277.61 K, m1 = 0.2967	1000.36
277.61 K, m1 = 0.4013	1000.53
277.61 K, m1 = 0.5977	1000.89
277.61 K, m1 = 0.7003	1001.1
277.61 K, m1 = 0.8024	1001.32
277.61 K, m1 = 0.9976	1001.77
278.12 K, m1 = 0.1076	1000.07
278.12 K, m1 = 0.1971	1000.19
278.12 K, m1 = 0.3283	1000.38
278.12 K, m1 = 0.4191	1000.51
278.12 K, m1 = 0.5074	1000.65
278.12 K, m1 = 0.6233	1000.85
278.12 K, m1 = 0.7379	1001.04
278.12 K, m1 = 0.8761	1001.28
278.68 K, m1 = 0.1003	1000.05
278.68 K, m1 = 0.1971	1000.17
278.68 K, m1 = 0.301	1000.31
278.68 K, m1 = 0.4013	1000.46
278.68 K, m1 = 0.4955	1000.62
278.68 K, m1 = 0.6013	1000.81
278.68 K, m1 = 0.695	1001
278.68 K, m1 = 0.8012	1001.23
